Measured values published in paper PMC9984387, “The dynamic nature of netrin-1 and the structural basis for glycosaminoglycan fragment-induced filament formation” (Nature Communications, 2023).

Molecular target: NET1ΔC (Gallus gallus, UniProt Q90922)
Assay: X-ray crystal structure (native crystals soaked in SOS)
Type: binding
Conditions: 10 mM SOS soak 5-7 days; crystals from PEG 8000, CHES pH 9.5; one SOS per monomer, two sites SOSab and SOScd in LE-2 subdomain

For `O=S(=O)(O)OC[C@H]1O[C@@](COS(=O)(=O)O)(O[C@H]2O[C@H](COS(=O)(=O)O)[C@@H](OS(=O)(=O)O)[C@H](OS(=O)(=O)O)[C@H]2OS(=O)(=O)O)[C@@H](OS(=O)(=O)O)[C@@H]1OS(=O)(=O)O` [SOS, sucrose-octasulfate], the “X-ray crystal structure (native crystals soaked in SOS)” value was “in complex with one sucrose-octasulfate molecule bound per monomer”.
